These are literature values, as cited in US20010039262A1, “Methods and compositions for the treatment of cardiac indications” (priority 2000, published 2001).

Molecules are shown by their SMILES.

The test system of one data set is patients with severe HF. Conditions: spironolactone administered along with captopril and furosemide.
For data set [1], the system named is patients with stable Congestive Heart Failure (NYHA class II-IV).
Where [2] appears, read: heart failure patients treated with spironolactone.

Take `CC(=O)S[C@@H]1CC2=CC(=O)CC[C@]2(C)[C@H]2CC[C@@]3(C)[C@@H](CC[C@@]34CCC(=O)O4)[C@H]12` [spironolactone]: the “reduction of morbidity and mortality” value with patients with severe HF was 27%. Besides, the morbidity result in data set [1] (31 patients with stable CHF (NYHA class II-IV), spironolactone vs placebo in addition to diuretics and ACE inhibitor) was “lowered”. In addition, in data set [1] (setting [2]), the “early morning rise in heart rate” value is on record as “reduced”, the heart rate variability entry is “improved” and the vascular collagen turnover result is recorded as “reduced”. Also, the “reduction in myocardial fibrosis activity” value in data set [1] (spironolactone 50-100 mg/day in addition to diuretics and ACE inhibitor, 8 weeks of active therapy) is on record as “approximately 20%”.
